One assay addresses RON (Homo sapiens, UniProt Q04912). Put plainly: RON inhibitory activity, TR-FRET kinase assay. The assay is classed as biochemical. Particulars: RON protein, ULight-labeled Poly GT substrate. The method, then: To measure the RON inhibitory activity of the example compounds, the IC50 of the compounds was measured using time-resolved fluorescence energy transfer (TR-FRET).
Specifically, the compound was prepared at a concentration of 1 mM with 100% DMSO and serially diluted 10 times through 3-fold dilution. 2 μl of the serially diluted compound was added to a 96-well plate containing 48 μl of 1× kinase reaction buffer (50 mM HEPES (pH 7.4), 0.01% Tween-20, 5 mM DTT, 0.5 mM Na3VO4, 2 mM EGTA, 10 mM MgCl2).
The RON protein was diluted with a RON storage buffer (50 mM Tris-HCl (pH 7.5), 150 mM NaCl, 0.5 mM EDTA, 0.02% Triton X-100) to a concentration of 49.3 nM, and then diluted again with 1× kinase reaction buffer to be 0.4 nM. As a substrate cocktail, a RON-specific substrate mixture (40 μM ULight-labeled Poly GT, 100 nM ATP) was prepared at a concentration twice the final reaction concentration.
(§1) After that, a 384-well plate was prepared, and 2.5 μl of the diluted example compound was added to each of the experimental group wells, and 2.5 μl of a 4% DMSO solution was dispensed into high control wells and low control wells.
(§2) Afterward, 2.5 μl of 0.4 nM RON was dispensed into the high control wells and the experimental group wells, and 2.5 μl of 1× kinase reaction buffer was added to the low control wells, and after centrifugation at 1000 RPM for 40 seconds at room temperature, the mixtures were incubated at room temperature for 20 to 30 minutes. Then, 5 μl of the substrate cocktail (2×) was dispensed into all wells, and after centrifugation at 1000 RPM for 40 seconds at room temperature, the mixtures were incubated at room temperature for 60 minutes. Afterward, 5 μl of 30 mM EDTA was added to all wells to terminate the reaction, and the mixtures were incubated again at room temperature for 5 minutes. Thereafter, 5 μl of 4× phosphotyrosine antibodies (Perkin Elmer) containing europium was added to all wells and incubated at room temperature for 60 minutes. After the incubation, the 384-well-plate was read with a Vison plate reader. At this time, the excitation wavelength was 340 nm, and the emission wavelengths were 620 nm and 665 nm. The IC50 value of each example compound was derived using the GraphPd Prism7 program.
Background: TR-FRET usually uses a lanthanide donor and a delayed reading to cut background.

A further assay addresses cMET (Homo sapiens, UniProt P08581). Put plainly: MET (cMET) enzyme inhibitory activity, TR-FRET kinase assay. The format is biochemical. The note with it: cMET protein, TK peptide substrate. The protocol:
In addition, to measure cMET enzyme activity inhibition, an experiment was performed by the same method as the experiment for measuring the RON enzyme activity inhibition.
Specifically, the compound was prepared at a concentration of 1 mM with 100% DMSO and serially diluted 10 times through 3-fold dilution. 2 μl of the serially diluted compound was added to a 96-well plate containing 48 μl 1× kinase reaction buffer (50 mM HEPES (pH 7.4), 0.05% BSA, 0.005% Tween-20, 1 mM DTT, 0.5 mM MnCl2, 20 mM MgCl2).
The cMET protein was diluted in a cMET storage buffer (50 mM Tris-HCl (pH 7.5), 150 mM NaCl, 0.05% Brij35, 1 mM DTT, 10% glycerol) to a concentration of 263 nM, and then diluted again with 1× kinase reaction buffer to 2 nM. As a substrate cocktail, a MET-specific substrate mixture (5 μM TK peptide, 10 mM ATP) was prepared at a concentration twice the final reaction concentration.
as §1
as §2, with “μl of 2 nM cMET” for “μl of 0.4 nM RON”, “2 nM cMET was dispensed” for “0.4 nM RON was dispensed”, “was dispensed to the high” for “was dispensed into the high”, “μl of 90 mM EDTA” for “μl of 30 mM EDTA”

The structures appear in SMILES notation.

Sequence of cMET (P08581 25-1390): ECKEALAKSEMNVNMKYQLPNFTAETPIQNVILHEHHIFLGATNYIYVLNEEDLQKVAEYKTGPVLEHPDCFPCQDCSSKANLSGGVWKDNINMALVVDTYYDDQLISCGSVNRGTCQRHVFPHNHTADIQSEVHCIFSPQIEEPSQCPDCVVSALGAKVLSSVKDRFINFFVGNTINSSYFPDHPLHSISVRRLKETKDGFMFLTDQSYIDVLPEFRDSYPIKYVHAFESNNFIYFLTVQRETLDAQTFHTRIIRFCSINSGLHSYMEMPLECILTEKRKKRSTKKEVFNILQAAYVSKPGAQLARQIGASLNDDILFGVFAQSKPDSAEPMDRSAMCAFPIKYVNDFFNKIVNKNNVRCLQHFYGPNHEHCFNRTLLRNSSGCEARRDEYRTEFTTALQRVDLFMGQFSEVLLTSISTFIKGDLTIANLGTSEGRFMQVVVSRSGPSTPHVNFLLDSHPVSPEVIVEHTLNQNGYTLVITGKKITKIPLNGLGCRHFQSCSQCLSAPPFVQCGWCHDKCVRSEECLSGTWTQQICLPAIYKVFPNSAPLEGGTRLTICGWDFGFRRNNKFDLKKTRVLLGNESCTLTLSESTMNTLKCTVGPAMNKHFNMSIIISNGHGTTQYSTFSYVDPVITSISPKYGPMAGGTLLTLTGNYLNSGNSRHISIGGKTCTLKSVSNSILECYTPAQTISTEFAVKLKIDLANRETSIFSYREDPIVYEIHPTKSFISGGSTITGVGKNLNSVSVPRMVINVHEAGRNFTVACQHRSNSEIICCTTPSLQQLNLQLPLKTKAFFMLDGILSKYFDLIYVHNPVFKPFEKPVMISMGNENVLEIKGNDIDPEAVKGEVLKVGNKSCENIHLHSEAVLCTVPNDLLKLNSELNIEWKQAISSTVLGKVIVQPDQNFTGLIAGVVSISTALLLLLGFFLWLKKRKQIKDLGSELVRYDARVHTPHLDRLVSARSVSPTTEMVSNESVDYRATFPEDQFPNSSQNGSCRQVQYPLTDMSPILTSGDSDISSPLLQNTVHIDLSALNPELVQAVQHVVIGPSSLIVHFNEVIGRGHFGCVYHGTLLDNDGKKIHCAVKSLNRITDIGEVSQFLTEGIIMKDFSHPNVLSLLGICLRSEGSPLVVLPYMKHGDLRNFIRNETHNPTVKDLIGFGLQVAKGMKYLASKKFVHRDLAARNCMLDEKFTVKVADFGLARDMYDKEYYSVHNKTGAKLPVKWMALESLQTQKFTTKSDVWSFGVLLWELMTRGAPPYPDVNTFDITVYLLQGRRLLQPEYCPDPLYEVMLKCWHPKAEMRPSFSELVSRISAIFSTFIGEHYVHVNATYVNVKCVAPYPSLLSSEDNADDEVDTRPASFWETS
Sequence of RON (Q04912 25-1400, species assumed): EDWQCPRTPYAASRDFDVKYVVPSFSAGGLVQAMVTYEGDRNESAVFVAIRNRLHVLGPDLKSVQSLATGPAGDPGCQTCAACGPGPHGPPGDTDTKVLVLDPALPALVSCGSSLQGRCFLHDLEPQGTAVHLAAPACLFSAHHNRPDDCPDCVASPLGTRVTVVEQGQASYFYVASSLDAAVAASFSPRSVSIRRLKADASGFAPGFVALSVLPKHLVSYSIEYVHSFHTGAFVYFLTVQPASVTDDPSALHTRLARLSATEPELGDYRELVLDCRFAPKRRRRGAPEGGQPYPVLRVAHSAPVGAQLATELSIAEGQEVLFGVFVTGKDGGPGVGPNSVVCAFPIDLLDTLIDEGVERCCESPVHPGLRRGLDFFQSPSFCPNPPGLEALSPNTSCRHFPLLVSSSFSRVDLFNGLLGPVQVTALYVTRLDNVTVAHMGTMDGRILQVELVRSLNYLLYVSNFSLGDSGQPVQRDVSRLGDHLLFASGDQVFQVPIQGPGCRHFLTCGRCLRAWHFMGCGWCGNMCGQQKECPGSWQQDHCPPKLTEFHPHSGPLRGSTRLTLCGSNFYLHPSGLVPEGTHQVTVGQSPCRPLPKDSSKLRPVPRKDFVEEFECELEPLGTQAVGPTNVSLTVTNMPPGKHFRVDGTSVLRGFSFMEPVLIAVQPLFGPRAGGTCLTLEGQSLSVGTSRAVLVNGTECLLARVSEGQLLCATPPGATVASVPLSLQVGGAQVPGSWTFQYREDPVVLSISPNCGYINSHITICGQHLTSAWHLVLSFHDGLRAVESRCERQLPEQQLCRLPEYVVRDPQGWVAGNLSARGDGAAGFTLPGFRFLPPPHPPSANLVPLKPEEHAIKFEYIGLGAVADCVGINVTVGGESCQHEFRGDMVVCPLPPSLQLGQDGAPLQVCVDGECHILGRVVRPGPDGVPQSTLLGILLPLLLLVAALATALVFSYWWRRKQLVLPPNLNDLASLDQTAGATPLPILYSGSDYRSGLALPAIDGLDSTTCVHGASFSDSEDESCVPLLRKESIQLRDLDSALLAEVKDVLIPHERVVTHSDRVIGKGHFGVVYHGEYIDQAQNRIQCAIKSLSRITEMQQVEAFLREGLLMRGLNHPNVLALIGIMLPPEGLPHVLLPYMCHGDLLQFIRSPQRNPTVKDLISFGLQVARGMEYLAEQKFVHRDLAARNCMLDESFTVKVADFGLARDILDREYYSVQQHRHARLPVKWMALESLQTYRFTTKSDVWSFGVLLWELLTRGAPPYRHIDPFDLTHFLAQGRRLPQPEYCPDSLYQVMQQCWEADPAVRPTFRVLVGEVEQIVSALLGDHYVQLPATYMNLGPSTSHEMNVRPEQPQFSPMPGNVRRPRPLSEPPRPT

In general, IC50 refers to the midpoint of a concentration-inhibition curve. Higher therefore signals a need for much substance. Consider `Nc1nccc(Oc2cc(F)c(NC(=O)c3cnn(-c4ncccc4F)c3C(F)(F)F)c(F)c2)c1Cl` [Example 7, N-(4-((2-amino-3-chloropyridin-4-yl)oxy)-2,6-difluorophenyl)-1-(3-fluoropyridin-2-yl)-5-(trifluoromethyl)-1H-pyrazole-4-carboxamide], for which the figures for the 50% inhibitory concentration (IC50) on RON and on cMET were 0.05 to 0.5 µM and more than 5 µM, respectively.
For the compound `Nc1nccc(Oc2c(F)cc(NC(=O)c3cnn(-c4ncccc4Cl)c3C(F)(F)F)cc2F)c1I` [Example 16, N-(4-((2-amino-3-iodopyridin-4-yl)oxy)-3,5-difluorophenyl)-1-(3-chloropyridin-2-yl)-5-(trifluoromethyl)-1H-pyrazole-4-carboxamide], the figures for the 50% inhibitory concentration (IC50) on RON and against cMET were less than 0.05 µM and 0.05 to 0.5 µM, respectively.
In the case of `CCc1c(C(=O)Nc2cc(F)c(Oc3ccnc(N)c3Cl)c(F)c2)cnn1-c1ncccc1F` [Example 4, N-(4-((2-amino-3-chloropyridin-4-yl)oxy)-3,5-difluorophenyl)-5-ethyl-1-(3-fluoropyridin-2-yl)-1H-pyrazole-4-carboxamide], the values for the concentration for half-maximal inhibition (IC50) against RON and on cMET were less than 0.05 µM and more than 5 µM, respectively.
As to `Nc1nccc(Oc2c(F)cc(NC(=O)c3cnn(-c4ncccc4F)c3C(F)(F)F)cc2F)c1CN1CCOCC1` [Example 47, N-(4-((2-amino-3-(morpholinomethyl)pyridin-4-yl)oxy)-3,5-difluorophenyl)-1-(3-fluoropyridine-2-yl)-5-(trifluoromethyl)-1H-pyrazole-4-carboxamide], the IC50 on RON was less than 0.05 µM; against cMET, 0.5 to 5 µM.
Regarding `Nc1nccc(Oc2c(F)cc(NC(=O)c3cnn(-c4ncccc4F)c3C(F)(F)F)cc2F)c1C1CCOCC1` [Example 20, N-(4-((2-amino-3-(tetrahydro-2H-pyran-4-yl)pyridin-4-yl)oxy)-3,5-difluorophenyl)-1-(3-fluoropyridin-2-yl)-5-(trifluoromethyl)-1H-pyrazole-4-carboxamide], the IC50 is less than 0.05 µM on RON and 0.05 to 0.5 µM against cMET.
In the case of `CC(C)c1c(Oc2c(F)cc(NC(=O)c3cnn(-c4ncccn4)c3C(F)(F)F)cc2F)ccnc1N` [Example 45, N-(4-((2-amino-3-isopropylpyridin-4-yl)oxy)-3,5-difluorophenyl)-1-(pyrimidin-2-yl)-5-(trifluoromethyl)-1H-pyrazole-4-carboxamide], the IC50 was less than 0.05 µM against RON and 0.5 to 5 µM on cMET.
Regarding `Nc1nccc(Oc2c(F)cc(NC(=O)c3cnn(-c4ncccc4Cl)c3C(F)(F)F)cc2F)c1CN1CCOCC1` [Example 49, N-(4-((2-amino-3-(morpholinomethyl)pyridin-4-yl)oxy)-3,5-difluorophenyl)-1-(3-chloropyridin-2-yl)-5-(trifluoromethyl)-1H-pyrazole-4-carboxamide], the IC50 against RON is less than 0.05 µM; against cMET, 0.5 to 5 µM.
Regarding `Nc1nccc(Oc2cc(F)c(NC(=O)c3cnn(-c4ccccc4)c3C(F)(F)F)cc2F)c1Cl` [Example 6, N-(4-((2-amino-3-chloropyridin-4-yl)oxy)-2,5-difluorophenyl)-1-phenyl-5-(trifluoromethyl)-1H-pyrazole-4-carboxamide], the IC50 was 0.05 to 0.5 µM on RON and more than 5 µM against cMET.
As to `Nc1nccc(Oc2c(F)cc(NC(=O)c3cnn(-c4ncccc4F)c3C(F)(F)F)cc2F)c1C1CC1` [Example 38, N-(4-((2-amino-3-cyclopropylpyridin-4-yl)oxy)-3,5-difluorophenyl)-1-(3-fluoropyridin-2-yl)-5-(trifluoromethyl)-1H-pyrazole-4-carboxamide], the results for the IC50 against RON and on cMET were less than 0.05 µM and 0.5 to 5 µM, respectively.
`Nc1nccc(Oc2cc(F)c(NC(=O)c3cnn(-c4ncccc4F)c3C(F)(F)F)cc2F)c1Cl` [Example 5, N-(4-((2-amino-3-chloropyridin-4-yl)oxy)-2,5-difluorophenyl)-1-(3-fluoropyridin-2-yl)-5-(trifluoromethyl)-1H-pyrazole-4-carboxamide]: the IC50 against RON was less than 0.05 µM; on cMET it was more than 5 µM.
The matching figures for `N#Cc1c(Oc2c(F)cc(NC(=O)c3cnn(-c4cccnn4)c3C(F)(F)F)cc2F)ccnc1N` [Example 36, N-(4-((2-amino-3-cyanopyridin-4-yl)oxy)-3,5-difluorophenyl)-1-(pyridazin-3-yl)-5-(trifluoromethyl)-1H-pyrazole-4-carboxamide]: 0.05 to 0.5 µM and 0.5 to 5 µM.
For the compound `Nc1nccc(Oc2c(F)cc(NC(=O)c3cnn(-c4cccnn4)c3C(F)(F)F)cc2F)c1C1CC1` [Example 42, N-(4-((2-amino-3-cyclopropylpyridin-4-yl)oxy)-3,5-difluorophenyl)-1-(pyridazin-3-yl)-5-(trifluoromethyl)-1H-pyrazole-4-carboxamide], the IC50 against RON was less than 0.05 µM; against cMET, 0.5 to 5 µM.
Turning to `Nc1nccc(Oc2c(F)cc(NC(=O)c3cnn(-c4ncccc4Cl)c3C(F)(F)F)cc2F)c1C1CCOCC1` [Example 21, N-(4-((2-amino-3-(tetrahydro-2H-pyran-4-yl)pyridin-4-yl)oxy)-3,5-difluorophenyl)-1-(3-chloropyridin-2-yl)-5-(trifluoromethyl)-1H-pyrazole-4-carboxamide], the IC50 on RON is less than 0.05 µM; at cMET it was 0.05 to 0.5 µM.
The corresponding values for `Nc1nccc(Oc2c(F)cc(NC(=O)c3cnn(-c4cccnn4)c3C(F)(F)F)cc2F)c1C1CCOCC1` [Example 23, N-(4-((2-amino-3-(tetrahydro-2H-pyran-4-yl)pyridin-4-yl)oxy)-3,5-difluorophenyl)-1-(pyridazin-3-yl)-5-(trifluoromethyl)-1H-pyrazole-4-carboxamide] are less than 0.05 µM and 0.5 to 5 µM.
The matching figures for `N#Cc1c(Oc2c(F)cc(NC(=O)c3cnn(-c4ccccn4)c3C(F)(F)F)cc2F)ccnc1N` [Example 32, N-(4-((2-amino-3-cyanopyridin-4-yl)oxy)-3,5-difluorophenyl)-1-(pyridin-2-yl)-5-(trifluoromethyl)-1H-pyrazole-4-carboxamide]: less than 0.05 µM and 0.5 to 5 µM.
With `Nc1nccc(Oc2c(F)cc(NC(=O)c3cnn(-c4ncccc4F)c3C(F)(F)F)cc2F)c1C#CCO` [Example 53, N-(4-((2-amino-3-(3-hydroxyprop-1-yn-1-yl)pyridin-4-yl)oxy)-3,5-difluorophenyl)-1-(3-fluoropyridin-2-yl)-5-(trifluoromethyl)-1H-pyrazole-4-carboxamide], the IC50 on RON was less than 0.05 µM; on cMET it was 0.05 to 0.5 µM.
The matching figures for `Nc1nccc(Oc2c(F)cc(NC(=O)c3cnn(-c4ccccc4)c3C(F)(F)F)cc2F)c1C1CC1` [Example 37, N-(4-((2-amino-3-cyclopropylpyridin-4-yl)oxy)-3,5-difluorophenyl)-1-phenyl-5-(trifluoromethyl)-1H-pyrazole-4-carboxamide]: less than 0.05 µM and 0.5 to 5 µM.
For the compound `Nc1ncnc(Oc2c(F)cc(NC(=O)c3cnn(-c4ncccc4F)c3C(F)(F)F)cc2F)c1Cl` [Example 10, N-(4-((6-amino-5-chloropyrimidin-4-yl)oxy)-3,5-difluorophenyl)-1-(3-fluoropyridin-2-yl)-5-(trifluoromethyl)-1H-pyrazole-4-carboxamide], the half-inhibitory concentration (IC50) at RON is less than 0.05 µM; against cMET, 0.5 to 5 µM.
